Experimental findings from ChEMBL document CHEMBL1201862, “PubChem BioAssay data set” (2004) are described below.

Assay [1] in a line: viability of uninfected HEp-2 cells – cell-based, HTS, cytotoxicity control for RSV inhibitor project, dose response (AID 2410). Conditions: human respiratory syncytial virus. It counts as functional.
A further assay has as its target Cytochrome P450 2D6 (Homo sapiens, UniProt P10635). The experiment in a line: qHTS Assay for Inhibitors and Substrates of Cytochrome P450 2D6. [Related pubchem assays: 410 ]. It is filed as ADME. To be noted: read-out: Potency.
For assay [2], the target named is T1, Sphingosine 1-phosphate receptor 4 (Homo sapiens, UniProt O95977).
T1 sequence (O95977 whole entry): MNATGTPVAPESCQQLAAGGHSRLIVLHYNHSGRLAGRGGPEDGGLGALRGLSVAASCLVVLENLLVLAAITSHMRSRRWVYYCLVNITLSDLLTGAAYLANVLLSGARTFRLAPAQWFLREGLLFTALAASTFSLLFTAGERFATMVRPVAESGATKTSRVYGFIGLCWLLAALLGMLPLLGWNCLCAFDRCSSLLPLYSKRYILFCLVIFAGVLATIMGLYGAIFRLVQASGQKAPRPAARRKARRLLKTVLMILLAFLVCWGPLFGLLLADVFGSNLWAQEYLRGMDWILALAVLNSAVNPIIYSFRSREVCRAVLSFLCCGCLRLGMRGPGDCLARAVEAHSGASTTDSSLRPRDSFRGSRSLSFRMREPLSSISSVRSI
Description: Late stage fluorescence dose response cell-based screening assay for antagonists of the Sphingosine 1-Phosphate Receptor 4 (S1P4). [Related pubchem assays: 1524 (Confirmation screen (S1P4 antagonists).), 1510 (Primary screen (S1P4 antagonists).), 1853 (Summary AID (S1P4 antagonists).), 1692 (Dose response screen (S1P4 antagonists).)]. It counts as functional.

The target in assay [3] is T1, Sphingosine 1-phosphate receptor 4. Description: Fluorescence dose response cell-based high throughput screening assay for antagonists of the Sphingosine 1-Phosphate Receptor 4 (S1P4). [Related pubchem assays: 1524 (Confirmation in triplicates.), 1510 (Primary screen.)]. It counts as functional.
Assay [4] concerns the target Sphingosine 1-phosphate receptor 1 (Homo sapiens, UniProt P21453). It is filed as functional.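 Note: Tango beta-arrestin reporter U2OS cells stimulated with S1P near its EC80; inhibitor potency meaning antagonism of receptor activation by the natural agonist.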
Assay [5] concerns the target FAD-linked sulfhydryl oxidase ALR (Homo sapiens, UniProt P55789). The experiment in a line: ALR-catalysed DTT oxidation blockers – biochemical, H2O2 detection, luminescence, cherry-pick, dose response (AID 493248).
For another assay, the system named is INS1. Description: INS-1E survival protection against cytokine death – cell-based, luminescence, retest, dose response (AID 449756).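 Note: cell death triggered by IL-1 beta plus TNF-alpha plus IFN-gamma mixture; protective hits raise ATP signal compared with cytokine alone wells.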 It is filed as functional. Conditions: Rattus norvegicus.
Assay [6] is described as follows: Fluorescence-based cell-based high throughput dose response assay for inhibitors of the interaction of nucleotide-binding oligomerization domain containing 2 (NOD2) and the receptor-interacting serine-threonine kinase 2 (RIPK2). Conditions: Homo sapiens. It counts as functional.
In a further assay the target is Paired box protein Pax-8 (Homo sapiens, UniProt Q06710). Description: PAX8 transcriptional activity inhibition in RMG-I – RMG-I cells, luciferase, cherry-pick, dose response (AID 687027).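 Note: luciferase reporter driven by Pax8 target thyroperoxidase promoter measured by SteadyGlo luminescence.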 It counts as functional, cell-based.
Paired box protein Pax-8, sequence (Q06710 whole entry): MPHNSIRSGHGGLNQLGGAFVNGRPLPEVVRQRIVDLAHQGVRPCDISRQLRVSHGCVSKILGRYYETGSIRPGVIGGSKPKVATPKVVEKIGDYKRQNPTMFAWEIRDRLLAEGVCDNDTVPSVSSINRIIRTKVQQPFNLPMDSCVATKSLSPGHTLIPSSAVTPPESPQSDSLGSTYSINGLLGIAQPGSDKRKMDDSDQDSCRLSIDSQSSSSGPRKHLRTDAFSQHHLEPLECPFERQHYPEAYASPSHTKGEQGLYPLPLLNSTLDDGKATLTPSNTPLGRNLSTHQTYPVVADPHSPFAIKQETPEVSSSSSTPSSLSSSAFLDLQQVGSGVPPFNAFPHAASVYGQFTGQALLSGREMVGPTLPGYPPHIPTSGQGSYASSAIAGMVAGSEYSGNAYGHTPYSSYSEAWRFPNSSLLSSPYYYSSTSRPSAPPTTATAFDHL
A short description of assay [7]: A549 cell cytotoxicity, dose response, cytotoxicity control, plate reader, cherry-pick, antagonist series (AID 743412). It is filed as functional, cell-based.
The nature of assay [8]: toxicity toward HepG2 liver cells – cell-based, plate reader, cherry-pick, antagonist series, cytotoxicity control, dose response (AID 743416). It counts as functional.
A short description of assay [9]: blockers of bursicon-stimulated LGR2 cAMP reporter – cell-based, HEK293, CRE-luciferase reporter, cherry pick, set 2, dose response (AID 743343).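 Note: transfected cells were stimulated with diluted bursicon conditioned medium after compound addition.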 It is filed as functional. (In a reporter assay the amount or activity of a reporter protein is the signal.)
Assay [10] can be described thus: blockade of melanocortin 4 receptor signaling – cell-based, plate reader, cherry pick, counter-screen for LGR2 antagonist project, dose response (AID 743444).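 Note: transfected HEK 293 cells stimulated with alpha-MSH peptide; potency of inhibitors of the alpha-MSH evoked signal.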 It is filed as functional. A general note: The purpose of a counterscreen is to sort out artefacts and off-target activity.
A short description of assay [11]: viability loss in HEK293 cells – cell-based, plate reader, cherry-picked samples, cytotoxicity control, dose response (AID 743446). It counts as functional.
Assay [12] deals with Heat shock cognate 71 kDa protein (Homo sapiens, UniProt P11142). The experiment in a line: In Vitro Hsc70 Dose Response Fluorescence Polarization Assay. [Related pubchem assays: 1072 ].
Heat shock cognate 71 kDa protein, sequence (P11142 whole entry): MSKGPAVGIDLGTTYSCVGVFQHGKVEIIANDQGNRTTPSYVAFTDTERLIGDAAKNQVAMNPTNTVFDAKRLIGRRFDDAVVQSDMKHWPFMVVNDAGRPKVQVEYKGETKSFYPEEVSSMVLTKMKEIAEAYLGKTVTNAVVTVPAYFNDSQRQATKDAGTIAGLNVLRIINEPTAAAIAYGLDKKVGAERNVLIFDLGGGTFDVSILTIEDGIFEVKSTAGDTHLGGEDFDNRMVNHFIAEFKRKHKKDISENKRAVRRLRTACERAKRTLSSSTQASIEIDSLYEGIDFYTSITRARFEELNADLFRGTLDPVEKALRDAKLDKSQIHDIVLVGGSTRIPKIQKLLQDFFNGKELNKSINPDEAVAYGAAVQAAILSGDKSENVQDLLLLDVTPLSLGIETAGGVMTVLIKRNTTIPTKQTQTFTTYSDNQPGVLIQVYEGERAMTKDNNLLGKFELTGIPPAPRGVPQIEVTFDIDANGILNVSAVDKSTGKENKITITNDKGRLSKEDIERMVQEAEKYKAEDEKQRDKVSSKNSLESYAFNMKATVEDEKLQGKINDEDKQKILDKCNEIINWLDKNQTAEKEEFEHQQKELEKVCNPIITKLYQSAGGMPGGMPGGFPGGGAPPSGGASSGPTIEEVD
Assay [13] concerns the target Heat shock 70 kDa protein 1A (Homo sapiens, UniProt P0DMV8). The experiment in a line: inhibition of Hsp70 binding activity – biochemical, fluorescence polarization, SAR follow-up (AID 1072). On the technique in general: Polarisation of emitted light reports the rotation of a fluorescent probe.
For the next assay, the system named is Staphylococcus aureus. The experiment in a line: Inhibitors of Bacterial Quorum Sensing Structure Activity Relationship (SAR) Analysis: Dose Response Assay. [Related pubchem assays: 700, 527 ]. It counts as functional, organism-based.
The next assay deals with Genome polyprotein (dengue virus type 2, UniProt P29990). The experiment in a line: flavivirus cap methylation enzyme inhibition – biochemical, confirmation dose response, primary screen (AID 588689). It counts as functional.
Genome polyprotein, sequence (P29990 2492-3391 limits assumed): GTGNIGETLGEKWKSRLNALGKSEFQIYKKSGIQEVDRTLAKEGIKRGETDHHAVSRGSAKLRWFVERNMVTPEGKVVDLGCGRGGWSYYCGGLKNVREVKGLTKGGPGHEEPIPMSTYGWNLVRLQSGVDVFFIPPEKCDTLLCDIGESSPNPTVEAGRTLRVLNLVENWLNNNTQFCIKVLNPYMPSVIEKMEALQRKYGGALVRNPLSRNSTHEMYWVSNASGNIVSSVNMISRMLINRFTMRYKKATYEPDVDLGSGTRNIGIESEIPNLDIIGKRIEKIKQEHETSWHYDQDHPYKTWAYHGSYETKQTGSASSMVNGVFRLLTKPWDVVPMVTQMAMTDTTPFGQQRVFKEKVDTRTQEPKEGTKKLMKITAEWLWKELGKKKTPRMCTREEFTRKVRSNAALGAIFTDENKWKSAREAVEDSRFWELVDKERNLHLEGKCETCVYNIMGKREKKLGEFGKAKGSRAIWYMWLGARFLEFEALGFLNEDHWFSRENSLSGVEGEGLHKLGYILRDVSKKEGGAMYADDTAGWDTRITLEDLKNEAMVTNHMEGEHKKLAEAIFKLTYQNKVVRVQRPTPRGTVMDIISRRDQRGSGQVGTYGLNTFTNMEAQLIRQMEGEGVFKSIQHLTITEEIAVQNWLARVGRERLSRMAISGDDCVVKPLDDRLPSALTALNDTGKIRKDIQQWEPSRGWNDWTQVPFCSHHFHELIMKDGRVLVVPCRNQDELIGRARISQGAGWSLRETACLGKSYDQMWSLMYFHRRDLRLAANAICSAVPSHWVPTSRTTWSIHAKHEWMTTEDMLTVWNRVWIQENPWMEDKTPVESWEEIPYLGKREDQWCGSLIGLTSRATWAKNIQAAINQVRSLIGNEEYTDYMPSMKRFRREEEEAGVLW

The structures appear in SMILES notation. Calls of active or inactive are those of the source.

As a reminder, the CC50 is the concentration that lowers cell viability or growth by half. As usually defined, the IC50 is the midpoint of a concentration-inhibition curve.

Heat shock 70 kDa protein 1A, sequence (P0DMV8 whole entry): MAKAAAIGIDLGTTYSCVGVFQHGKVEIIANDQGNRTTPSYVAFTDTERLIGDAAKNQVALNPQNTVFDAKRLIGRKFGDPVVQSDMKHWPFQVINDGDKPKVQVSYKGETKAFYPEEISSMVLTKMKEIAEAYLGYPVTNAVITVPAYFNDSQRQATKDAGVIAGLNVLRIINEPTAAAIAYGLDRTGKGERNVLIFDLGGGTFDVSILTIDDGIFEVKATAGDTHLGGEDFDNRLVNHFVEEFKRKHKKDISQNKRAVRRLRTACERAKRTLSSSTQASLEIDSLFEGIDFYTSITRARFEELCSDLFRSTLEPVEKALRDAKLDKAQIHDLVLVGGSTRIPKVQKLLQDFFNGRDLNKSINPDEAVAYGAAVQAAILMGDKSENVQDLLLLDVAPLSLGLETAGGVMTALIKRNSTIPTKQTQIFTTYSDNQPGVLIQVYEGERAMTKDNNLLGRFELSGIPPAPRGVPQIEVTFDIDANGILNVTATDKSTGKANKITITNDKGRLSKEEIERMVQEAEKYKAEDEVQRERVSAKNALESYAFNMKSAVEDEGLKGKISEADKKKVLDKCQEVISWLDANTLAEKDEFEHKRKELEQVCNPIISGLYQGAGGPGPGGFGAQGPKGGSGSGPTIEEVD
Cytochrome P450 2D6, sequence (P10635 whole entry): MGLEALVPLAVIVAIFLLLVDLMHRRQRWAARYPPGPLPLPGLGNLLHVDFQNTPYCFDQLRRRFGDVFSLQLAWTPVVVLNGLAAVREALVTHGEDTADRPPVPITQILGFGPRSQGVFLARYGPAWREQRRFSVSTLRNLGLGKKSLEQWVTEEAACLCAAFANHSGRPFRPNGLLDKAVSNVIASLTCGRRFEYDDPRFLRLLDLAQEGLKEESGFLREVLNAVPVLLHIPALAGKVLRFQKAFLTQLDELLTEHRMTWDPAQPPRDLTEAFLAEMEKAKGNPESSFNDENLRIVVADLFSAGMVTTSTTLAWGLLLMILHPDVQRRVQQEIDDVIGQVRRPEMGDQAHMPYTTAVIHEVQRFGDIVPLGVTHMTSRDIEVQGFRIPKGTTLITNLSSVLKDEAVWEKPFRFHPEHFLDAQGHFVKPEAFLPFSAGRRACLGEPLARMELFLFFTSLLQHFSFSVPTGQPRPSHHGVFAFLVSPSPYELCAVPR
FAD-linked sulfhydryl oxidase ALR, sequence (P55789 whole entry): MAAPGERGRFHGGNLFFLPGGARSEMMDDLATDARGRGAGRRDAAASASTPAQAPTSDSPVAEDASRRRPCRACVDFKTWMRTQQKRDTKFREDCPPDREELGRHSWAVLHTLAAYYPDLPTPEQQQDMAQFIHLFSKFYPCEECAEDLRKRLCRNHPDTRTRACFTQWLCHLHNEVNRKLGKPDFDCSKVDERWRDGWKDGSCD
Sphingosine 1-phosphate receptor 1, sequence (P21453 whole entry): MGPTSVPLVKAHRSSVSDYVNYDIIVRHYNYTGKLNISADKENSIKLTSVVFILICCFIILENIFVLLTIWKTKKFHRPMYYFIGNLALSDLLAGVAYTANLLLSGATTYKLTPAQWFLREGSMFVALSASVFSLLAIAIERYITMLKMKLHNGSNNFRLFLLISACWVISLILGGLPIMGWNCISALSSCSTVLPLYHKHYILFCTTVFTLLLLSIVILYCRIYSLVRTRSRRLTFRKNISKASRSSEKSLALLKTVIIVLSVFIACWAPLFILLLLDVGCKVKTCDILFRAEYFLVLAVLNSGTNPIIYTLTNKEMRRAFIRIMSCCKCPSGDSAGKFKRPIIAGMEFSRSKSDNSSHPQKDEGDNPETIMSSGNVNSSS

On to `COc1ccc(CCNC(=O)c2ccc(-c3ccc([N+](=O)[O-])cc3Cl)o2)cc1`, for which the CC50 in [1] is 33.6 µM (active). Besides, the half-maximal inhibitory concentration (IC50) in the assay “cells” is 25.5 µM (active).
`COc1ccc2c(=O)cc(-c3ccc(O)cc3)oc2c1`: the AC50 at Cytochrome P450 2D6 was 15.8 µM (inconclusive).
Turning to `COc1ccc([N+](=O)[O-])c(S(=O)(=O)c2ccccc2)n1`, the half-maximal inhibitory concentration (IC50) is 1.42 µM (not active) in assay [2], 0.691 µM (active) in assay [3], 7.19 µM (active) in assay [4] and 3.15 µM (active) in [6]. Further, the AC50 in assay [5] is 0.501 µM (active); in the assay with INS1, 7.12 µM (active); at Paired box protein Pax-8, 8.18 µM (active); in assay [7] it was 8.75 µM (active); in assay [8], 7.56 µM (active); in assay [9], 4.61 µM (active). The AC50 is 4.27 µM (active) in [10] and 8.06 µM (active) in assay [11].
For the compound `O=C(O)C1CCCCC1c1c2ccc(=O)c(O)c-2oc2c(O)c(O)ccc12` (centres undefined), the half-inhibitory concentration (IC50) in [12] was 42.4 µM (active); in assay [13], 9.85 µM (active).
Regarding `CC(C)c1ccc(S(=O)(=O)c2nnn3c2nc(O)c2ccccc23)cc1` [SAVIRIN], the half-inhibitory concentration (IC50) with Staphylococcus aureus is 0.25 µM (active); at Genome polyprotein, 51.5 µM (active).
